Consider 30 molecules from patent publication US20090163586A1, “Bis-(Sulfonylamino) Derivatives in Therapy 205” (AstraZeneca AB, priority 2007, published 2009).

This experiment addresses T1, human mPGES-1 (Homo sapiens, UniProt O14684).
T1 sequence (O14684 1-152): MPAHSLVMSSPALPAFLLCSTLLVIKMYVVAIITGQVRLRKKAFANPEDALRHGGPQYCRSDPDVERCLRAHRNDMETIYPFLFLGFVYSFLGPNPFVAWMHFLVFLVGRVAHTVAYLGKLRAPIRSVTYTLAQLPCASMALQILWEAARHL
Nature of the experiment: Microsomal prostaglandin E synthase biochemical assay. The following applies: microsome preparation containing human mPGES-1; PGH2 10.8 μM, GSH 2.5 mM, pH 6.8; PGE2 by HTRF; average of at least n=2. In outline:
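Human mPGES-1 microsomes at 2 μg/mL were pre-incubated 15 min with compound (60 μM to 0.002 μM) in 50 mM potassium phosphate pH 6.8 with 2.5 mM GSH. The reaction was started with 10.8 μM PGH2 and stopped after 1 minute with acidic ferric chloride/citrate. PGE2 was quantified by HTRF; IC50 is the mean of at least 2 runs.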
In general terms: TR-FRET usually uses a lanthanide donor and a delayed reading to cut background.

The structures appear in SMILES notation.

As usually defined, the IC50 is the concentration at which inhibition is half-maximal. High values mean a need for much substance, low ones inhibition by little substance.

Regarding `NS(=O)(=O)c1ccc(F)cc1NS(=O)(=O)/C=C/c1ccc(Br)cc1` [Example 95, 2-[[(E)-2-(4-Bromophenyl)ethenyl]sulfonylamino]-4-fluoro-benzenesulfonamide], half-maximal inhibition (IC50) was put at 0.31 µM. Under `Cc1ccc(NS(=O)(=O)/C=C/c2ccc3ccccc3c2)c(S(N)(=O)=O)c1` [Example 96, 5-Methyl-2-[[(E)-2-naphthalen-2-ylethenyl]sulfonylamino]benzenesulfonamide] stands 4.8 µM; under `Cc1ccc(NS(=O)(=O)/C=C/c2ccc(C(F)(F)F)cc2)c(S(N)(=O)=O)c1` [Example 97, 5-Methyl-2-[[(E)-2-[4-(trifluoromethyl)phenyl]ethenyl]sulfonylamino]-benzenesulfonamide], 3.4 µM; under `Cc1ccc(NS(=O)(=O)/C=C/c2ccc(Br)cc2)c(S(N)(=O)=O)c1` [Example 98, 2-[[(E)-2-(4-Bromophenyl)ethenyl]sulfonylamino]-5-methyl-benzenesulfonamide], 0.68 µM. The same measure for `NS(=O)(=O)c1cc(F)ccc1NS(=O)(=O)/C=C/c1ccc2ccccc2c1` [Example 99, 5-Fluoro-2-[[(E)-2-naphthalen-2-ylethenyl]sulfonylamino]benzenesulfonamide]: 0.29 µM; for `NS(=O)(=O)c1cc(F)ccc1NS(=O)(=O)/C=C/c1ccccc1C(F)(F)F` [Example 100, 5-Fluoro-2-[[(E)-2-[2-(trifluoromethyl)phenyl]ethenyl]sulfonylamino]-benzenesulfonamide]: 4 µM. Under `NS(=O)(=O)c1cc(F)ccc1NS(=O)(=O)/C=C/c1ccc(C(F)(F)F)cc1` [Example 101, 5-Fluoro-2-[[(E)-2-[4-(trifluoromethyl)phenyl]ethenyl]sulfonylamino]-benzenesulfonamide] stands 1.6 µM; under `NS(=O)(=O)c1cc(F)ccc1NS(=O)(=O)/C=C/c1ccc(Br)cc1` [Example 102, 2-[[(E)-2-(4-Bromophenyl)ethenyl]sulfonylamino]-5-fluoro-benzenesulfonamide], 0.85 µM. `NS(=O)(=O)c1ccccc1NS(=O)(=O)/C=C/c1c(F)cccc1F` [Example 103, 2-[[(E)-2-(2,6-Difluorophenyl)ethenyl]sulfonylamino]benzenesulfonamide] gave a half-maximal inhibitory concentration (IC50) of 9.2 µM. The same measure for `NS(=O)(=O)c1ccccc1NS(=O)(=O)/C=C/c1ccccc1C(F)(F)F` [Example 104, 2-[[(E)-2-[2-(Trifluoromethyl)phenyl]ethenyl]sulfonylamino]benzenesulfonamide]: 4.6 µM; for `NS(=O)(=O)c1ccccc1NS(=O)(=O)/C=C/c1ccc(C(F)(F)F)cc1` [Example 105, 2-[[(E)-2-[4-(Trifluoromethyl)phenyl]ethenyl]sulfonylamino]benzenesulfonamide]: 0.67 µM. Under `NS(=O)(=O)c1ccccc1NS(=O)(=O)/C=C/c1ccc(Br)cc1` [Example 106, 2-[[(E)-2-(4-Bromophenyl)ethenyl]sulfonylamino]benzenesulfonamide] stands 0.074 µM. The same measure for `NS(=O)(=O)c1ccccc1NS(=O)(=O)CCc1ccc(Br)cc1` [Example 107, 2-[(E)-2-(4-Bromophenyl)ethylsulfonylamino]benzenesulfonamide]: 0.14 µM; for `CC(CS(=O)(=O)Nc1ccccc1S(N)(=O)=O)c1ccc(Cl)cc1` (stereo not drawn) [Example 108, 2-[2-(4-Chlorophenyl)propylsulfonylamino]benzenesulfonamide]: 4.9 µM. For `COc1ccccc1CCS(=O)(=O)Nc1ccccc1S(N)(=O)=O` [Example 109, 2-[2-(2-Methoxyphenyl)ethylsulfonylamino]benzenesulfonamide], the IC50 was determined as 6.1 µM. The same measure for `NS(=O)(=O)c1ccccc1NS(=O)(=O)CCc1ccc2ccccc2c1` [Example 110, 2-(2-Naphthalen-2-ylethylsulfonylamino)benzenesulfonamide]: 0.49 µM; for `NS(=O)(=O)c1ccc(F)cc1NS(=O)(=O)CCc1ccc2ccccc2c1` [Example 111, 4-Fluoro-2-(2-naphthalen-2-ylethylsulfonylamino)benzenesulfonamide]: 0.76 µM.

As for `NS(=O)(=O)c1ccccc1NS(=O)(=O)Cc1ccc(Cl)cc1` [Example 112, 2-[(4-Chlorophenyl)methylsulfonylamino]benzenesulfonamide], half-maximal inhibition (IC50) required 6.1 µM.

`NS(=O)(=O)c1ccccc1NS(=O)(=O)c1cccc(-c2cccc(Cl)c2Cl)c1` [Example 113, 2-[[3-(2,3-Dichlorophenyl)phenyl]sulfonylamino]benzenesulfonamide] displayed an IC50 of 0.48 µM. The same measure for `NS(=O)(=O)c1ccccc1NS(=O)(=O)c1cccc(-c2cc(F)cc(F)c2)c1` [Example 114, 2-[[3-(3,5-difluorophenyl)phenyl]sulfonylamino]benzenesulfonamide]: 0.83 µM; for `COc1ccc(Cl)cc1-c1cccc(S(=O)(=O)Nc2ccccc2S(N)(=O)=O)c1` [Example 115, 3-(5-Chloro-2-methoxy-phenyl)-N-(2-sulfamoylphenyl)benzenesulfonamide]: 2.6 µM. Under `N#Cc1cccc(-c2cccc(S(=O)(=O)Nc3ccccc3S(N)(=O)=O)c2)c1` [Example 116, 2-[[3-(3-Cyanophenyl)phenyl]sulfonylamino]benzenesulfonamide] stands 1.7 µM; under `N#Cc1ccc(-c2cccc(S(=O)(=O)Nc3ccccc3S(N)(=O)=O)c2)cc1` [Example 117, 2-[[3-(4-Cyanophenyl)phenyl]sulfonylamino]benzenesulfonamide], 1.3 µM. The same measure for `COc1ncc(-c2cccc(S(=O)(=O)Nc3ccccc3S(N)(=O)=O)c2)c(OC)n1` [Example 118, 3-(2,4-Dimethoxypyrimidin-5-yl)-N-(2-sulfamoylphenyl)benzenesulfonamide]: 4.7 µM. As to `NS(=O)(=O)c1ccccc1NS(=O)(=O)c1cccc(-c2ccoc2)c1` [Example 119, 2-[[3-(3-Furyl)phenyl]sulfonylamino]benzenesulfonamide], the 50% inhibitory concentration (IC50) turned out to be 4.5 µM. Under `NS(=O)(=O)c1ccccc1NS(=O)(=O)c1cccc(-c2ccc3[nH]ccc3c2)c1` [Example 120, 2-[[3-(1H-Indol-5-yl)phenyl]sulfonylamino]benzenesulfonamide] stands 3.3 µM; under `NS(=O)(=O)c1ccccc1NS(=O)(=O)c1cccc(-c2cccc(OC(F)(F)F)c2)c1` [Example 121, 2-[[3-[3-(Trifluoromethoxy)phenyl]phenyl]sulfonylamino]benzenesulfonamide], 0.22 µM. The same measure for `NS(=O)(=O)c1ccccc1NS(=O)(=O)c1ccc2c(c1)CCC2` [Example 122, N-(2-Sulfamoylphenyl)-2,3-dihydro-1H-indene-5-sulfonamide]: 6.7 µM. The same measure for `CN1CCOc2cc(S(=O)(=O)Nc3ccccc3S(N)(=O)=O)ccc21` [Example 123, 7-Methyl-N-(2-sulfamoylphenyl)-10-oxa-7-azabicyclo[4.4.0]deca-1,3,5-triene-3-sulfonamide]: 9.3 µM; for `NS(=O)(=O)c1ccccc1NS(=O)(=O)c1ccccc1-c1ccc(Cl)c(Cl)c1` [Example 124, 2-(3,4-Dichlorophenyl)-N-(2-sulfamoylphenyl)benzenesulfonamide]: 1.3 µM.
